Species: Rattus norvegicus
Assay: Open TG-GATES - Regimen: Daily Repeat
Type: toxicity, organism-based, Sprague-Dawley
Design: regimen Daily Repeat, gender Male, age 6 weeks
Conditions: in vivo, po, route gavage; for TP / gamma-GTP / ALP / ALT / AST / BUN / CRE / Cl / DBIL / GLC / IP / K / LDH / Na / PL / RALB / TBIL / TC / TG / Ca: tissue Plasma; for APTT / Bas / Eos / Fbg / Hb / Ht / Lym / MCH / MCHC / MCV / Mono / Neu / PT / Plat / RBC / Ret / WBC: tissue Blood; for KIDNEY_L / KIDNEY_R / KIDNEY_TOTAL: tissue Kidney; for LIVER: tissue Liver
[1] = 300 mg/kg, […], dose level Middle, time 28 day
[2] = 1000 mg/kg, 72 h, dose level High, time 3 day
[3] = 1000 mg/kg, […], dose level High, time 7 day
[4] = 1000 mg/kg, […], dose level High, time 14 day
[5] = 1000 mg/kg, […], dose level High, time 28 day

COC(=O)C1=C(C)NC(C)=C(C(=O)OC)C1c1ccccc1[N+](=O)[O-] [NIFEDIPINE] gave a TP [1] of 6.1 g/dL, a gamma-GTP [1] of 1 IU/L and a TERMINAL_BW [2] of 202 g. For the same molecule, the APTT [2] was 21.7 s, the Bas [2] was 0% and the Eos [2] was 0.8%. The Fbg [2] was 252.6 mg/dL, the Hb [2] was 14 g/dL and the Ht [2] was 42.2%. It also gave a Lym [2] of 76.8%, an MCH [2] of 20.5 pg and an MCHC [2] of 33.2%. It also gave an MCV [2] of 61.8 fL, a Mono [2] of 3.2% and a Neu [2] of 18.2%. The PT [2] was 14.1 s, the Plat [2] was 134.4 x10_4/uL and the RBC [2] was 683.2 x10_4/ul. It also gave a Ret [2] of 7.3%, a WBC [2] of 97.2 x10_2/uL and a KIDNEY_L [2] of 0.9 g. It also gave a KIDNEY_R [2] of 0.9 g, a KIDNEY_TOTAL [2] of 1.7 g and an ALP [2] of 1290.2 IU/L. For the same molecule, the ALT [2] was 41.6 IU/L, the AST [2] was 67.6 IU/L and the BUN [2] was 14 mg/dL. The CRE [2] was 0.2 mg/dL, the Cl [2] was 107.8 meq/L and the DBIL [2] was 0.016 mg/dL. For the same molecule, the GLC [2] was 153 mg/dL, the IP [2] was 6.1 mg/dL and the K [2] was 4.1 meq/L. The LDH [2] was 69.6 IU/L, the Na [2] was 143.6 meq/L and the PL [2] was 123 mg/dL. It also gave an RALB [2] of 2.5 g/dL, a TBIL [2] of 0.032 mg/dL and a TC [2] of 67.2 mg/dL. The TG [2] was 54 mg/dL, the TP [2] was 5.3 g/dL and the gamma-GTP [2] was 0.8 IU/L. For the same molecule, the TERMINAL_BW [3] was 238.1 g, the TERMINAL_BW [4] was 309.6 g and the TERMINAL_BW [5] was 388.3 g. The APTT [3] was 16.8 s, the Bas [3] was 0.4% and the Eos [3] was 0.8%. For the same molecule, the Fbg [3] was 253.4 mg/dL, the Hb [3] was 14.1 g/dL and the Ht [3] was 42.6%. For the same molecule, the Lym [3] was 71.4%, the MCH [3] was 20.2 pg and the MCHC [3] was 33.1%. It also gave an MCV [3] of 61 fL, a Mono [3] of 2.8% and a Neu [3] of 23.8%. For the same molecule, the PT [3] was 14.2 s, the Plat [3] was 142.6 x10_4/uL and the RBC [3] was 701.2 x10_4/ul. It also gave a Ret [3] of 5.9%, a WBC [3] of 121.8 x10_2/uL and an APTT [4] of 21.1 s. For the same molecule, the Bas [4] was 0.4%, the Eos [4] was 0.6% and the Fbg [4] was 267.4 mg/dL. It also gave a Hb [4] of 14.3 g/dL, a Ht [4] of 42.8% and a Lym [4] of 73.8%. For the same molecule, the MCH [4] was 20.6 pg, the MCHC [4] was 33.5% and the MCV [4] was 61.4 fL. It also gave a Mono [4] of 3%, a Neu [4] of 21.4% and a PT [4] of 13.8 s. The Plat [4] was 120.3 x10_4/uL, the RBC [4] was 697.2 x10_4/ul and the Ret [4] was 5.8%. For the same molecule, the WBC [4] was 117.1 x10_2/uL, the APTT [5] was 21.7 s and the Bas [5] was 0%. For the same molecule, the Eos [5] was 0.8%, the Fbg [5] was 252.6 mg/dL and the Hb [5] was 14 g/dL. It also gave a Ht [5] of 42.2%, a Lym [5] of 76.8% and an MCH [5] of 20.5 pg. The MCHC [5] was 33.2%, the MCV [5] was 61.8 fL and the Mono [5] was 3.2%. The Neu [5] was 18.2%, the PT [5] was 14.1 s and the Plat [5] was 134.4 x10_4/uL. The RBC [5] was 683.2 x10_4/ul, the Ret [5] was 7.3% and the WBC [5] was 97.2 x10_2/uL. It also gave a KIDNEY_L [3] of 1 g, a KIDNEY_R [3] of 0.9 g and a KIDNEY_TOTAL [3] of 1.9 g. For the same molecule, the KIDNEY_L [4] was 1.2 g, the KIDNEY_R [4] was 1.2 g and the KIDNEY_TOTAL [4] was 2.4 g. The KIDNEY_L [5] was 1.4 g, the KIDNEY_R [5] was 1.3 g and the KIDNEY_TOTAL [5] was 2.7 g. The LIVER [3] was 12.1 g, the LIVER [4] was 15.5 g and the LIVER [5] was 17.5 g. The ALP [3] was 1072.4 IU/L, the ALT [3] was 40.4 IU/L and the AST [3] was 68.2 IU/L. For the same molecule, the BUN [3] was 15 mg/dL, the CRE [3] was 0.2 mg/dL and the Cl [3] was 105.8 meq/L. The DBIL [3] was 0.016 mg/dL, the GLC [3] was 155.6 mg/dL and the IP [3] was 6.4 mg/dL. It also gave a K [3] of 3.9 meq/L, an LDH [3] of 86 IU/L and a Na [3] of 144.2 meq/L. It also gave a PL [3] of 129 mg/dL, an RALB [3] of 2.7 g/dL and a TBIL [3] of 0.028 mg/dL. The TC [3] was 68.8 mg/dL, the TG [3] was 70.6 mg/dL and the TP [3] was 5.7 g/dL. The gamma-GTP [3] was 1 IU/L, the ALP [4] was 1620.8 IU/L and the ALT [4] was 41.6 IU/L. The AST [4] was 66.6 IU/L, the BUN [4] was 18.6 mg/dL and the CRE [4] was 0.2 mg/dL. It also gave a Ca [4] of 11 mg/dL, a Cl [4] of 104.2 meq/L and a DBIL [4] of 0.012 mg/dL. For the same molecule, the GLC [4] was 172.8 mg/dL, the IP [4] was 7.3 mg/dL and the K [4] was 4 meq/L. It also gave an LDH [4] of 51 IU/L, a Na [4] of 143.4 meq/L and a PL [4] of 161 mg/dL. It also gave an RALB [4] of 2.8 g/dL, a TBIL [4] of 0.018 mg/dL and a TC [4] of 84.2 mg/dL. It also gave a TG [4] of 101.8 mg/dL, a TP [4] of 5.9 g/dL and a gamma-GTP [4] of 1 IU/L. The ALP [5] was 975.4 IU/L, the ALT [5] was 40.2 IU/L and the AST [5] was 64.4 IU/L. For the same molecule, the BUN [5] was 18.2 mg/dL, the CRE [5] was 0.3 mg/dL and the Ca [5] was 10.3 mg/dL. The Cl [5] was 106.6 meq/L, the DBIL [5] was 0.012 mg/dL and the GLC [5] was 162.8 mg/dL. The IP [5] was 5.8 mg/dL, the K [5] was 3.7 meq/L and the LDH [5] was 62.8 IU/L. For the same molecule, the Na [5] was 144.4 meq/L, the PL [5] was 144 mg/dL and the RALB [5] was 2.7 g/dL. The TBIL [5] was 0.028 mg/dL, the TC [5] was 73.6 mg/dL and the TG [5] was 115.4 mg/dL. The TP [5] was 6 g/dL and the gamma-GTP [5] was 1 IU/L.

From ChEMBL document CHEMBL3885861, “Open TG-GATES”
